Measurements: the NIST ThermoML archive (doi:10.1021/je101173w)

Tests used:
[1] = mn = molality of the nth substance listed, in mol/kg; settings: 101 kPa, Liquid; for viscosity: Capillary tube (Ostwald / Ubbelohde) method; for mass density: Vibrating tube method
[2] = 101.33 kPa, Liquid; for viscosity: Capillary tube (Ostwald / Ubbelohde) method; for mass density: Vibrating tube method

Oc1cccc(O)c1 [1,3-benzenediol] + O
[1]
Settings | mass density, 293.15 K [kg/m3] | mass density, 303.15 K [kg/m3] | mass density, 313.15 K [kg/m3] | mass density, 323.15 K [kg/m3] | mass density, 333.15 K [kg/m3] | viscosity, 293.15 K [mPa·s] | viscosity, 303.15 K [mPa·s] | viscosity, 313.15 K [mPa·s] | viscosity, 323.15 K [mPa·s] | viscosity, 333.15 K [mPa·s]
m1 = 2.361 | 1041.62 | 1037.63 | 1032.94 | 1027.74 | 1021.98 | 1.615 | 1.25 | 1.012 | 0.8329 | 0.6974
m1 = 4.819 | 1073.42 | 1068.64 | 1062.96 | 1057.26 | 1050.76 | 2.481 | 1.874 | 1.474 | 1.181 | 0.9741
m1 = 7.567 | 1099.32 | 1093.72 | 1087.57 | 1081.27 | 1074.55 | 3.681 | 2.72 | 2.089 | 1.629 | 1.311
m1 = 10.59 | 1120.13 | 1113.97 | 1107.55 | 1100.86 | 1094.26 | 5.347 | 3.844 | 2.867 | 2.193 | 1.727
m1 = 13.9 | 1137.42 | 1130.96 | 1124.23 | 1117.62 | 1110.53 | 7.61 | 5.36 | 3.9 | 2.909 | 2.247

Oc1cccc(O)c1 [1,3-benzenediol] + CCO
[1]
Settings | mass density, m1 = 1.634 [kg/m3] | mass density, m1 = 3.537 [kg/m3] | mass density, m1 = 5.77 [kg/m3] | mass density, m1 = 8.441 [kg/m3] | mass density, m1 = 11.69 [kg/m3] | viscosity, m1 = 1.634 [mPa·s] | viscosity, m1 = 3.537 [mPa·s] | viscosity, m1 = 5.77 [mPa·s] | viscosity, m1 = 8.441 [mPa·s] | viscosity, m1 = 11.69 [mPa·s]
293.15 K | 847.02 | 897.16 | 941.64 | 981.15 | 1017.03 | 2.136 | 3.742 | 6.373 | 11.33 | 21.33
303.15 K | 838.53 | 889.03 | 933.72 | 973.42 | 1007.47 | 1.707 | 3.078 | 4.872 | 8.487 | 15.56
313.15 K | 830.12 | 880.71 | 925.87 | 965.64 | 1002.06 | 1.421 | 2.294 | 3.648 | 5.94 | 9.505
323.15 K | 821.65 | 872.63 | 918.18 | 957.95 | 994.49 | 1.265 | 1.947 | 2.864 | 4.295 | 6.578

Oc1cccc(O)c1 [1,3-benzenediol] + CCCCO
[1]
Settings | mass density, 293.15 K [kg/m3] | mass density, 303.15 K [kg/m3] | mass density, 313.15 K [kg/m3] | mass density, 323.15 K [kg/m3] | mass density, 333.15 K [kg/m3] | viscosity, 293.15 K [mPa·s] | viscosity, 303.15 K [mPa·s] | viscosity, 313.15 K [mPa·s] | viscosity, 323.15 K [mPa·s] | viscosity, 333.15 K [mPa·s]
m1 = 1.016 | 844.32 | 836.69 | 828.92 | 821.01 | 812.92 | 4.518 | 3.357 | 2.54 | 1.972 | 1.674
m1 = 2.196 | 878.29 | 870.07 | 862.36 | 854.51 | 846.52 | 7.007 | 5.06 | 3.71 | 2.809 | 2.33
m1 = 3.586 | 910.51 | 902.98 | 895.33 | 887.57 | 879.68 | 11.56 | 8.021 | 5.552 | 4.091 | 3.274
m1 = 5.247 | 942.6 | 935.1 | 927.53 | 919.86 | 912.09 | 19.75 | 12.64 | 8.601 | 6.096 | 4.84
m1 = 7.265 | 974.13 | 966.7 | 959.2 | 951.6 | 943.92 | 34.34 | 20.69 | 13.18 | 8.804 | 6.635

Oc1cccc(O)c1 [1,3-benzenediol] + CCCO
[1]
Settings | mass density, 293.15 K [kg/m3] | mass density, 303.15 K [kg/m3] | mass density, 313.15 K [kg/m3] | mass density, 323.15 K [kg/m3] | mass density, 333.15 K [kg/m3] | viscosity, 293.15 K [mPa·s] | viscosity, 303.15 K [mPa·s] | viscosity, 313.15 K [mPa·s] | viscosity, 323.15 K [mPa·s] | viscosity, 333.15 K [mPa·s]
m1 = 1.252 | 846.41 | 838.23 | 830.12 | 821.85 | 813.35 | 3.605 | 2.74 | 2.133 | 1.675 | 1.374
m1 = 2.709 | 886.87 | 878.7 | 870.62 | 862.49 | 854.18 | 6.043 | 4.375 | 3.292 | 2.465 | 1.952
m1 = 4.423 | 924.61 | 916.62 | 908.69 | 900.65 | 892.48 | 10.37 | 7.225 | 5.137 | 3.736 | 2.862
m1 = 6.471 | 960.5 | 952.55 | 944.74 | 936.83 | 928.84 | 18.52 | 12.05 | 8.179 | 5.696 | 4.195
m1 = 8.959 | 994.1 | 986.39 | 978.72 | 970.97 | 963.1 | 33.22 | 20.29 | 12.82 | 8.199 | 6.412

CCO [ethanol]
[2]
Settings | mass density [kg/m3] | viscosity [mPa·s]
293.15 K | 790.08 | 1.211
303.15 K | 781 | 0.9977
313.15 K | 772.31 | 0.8319
323.15 K | 763.35 | 0.6876
333.15 K | 754.2 | 0.5806
